Data: the supplement of paper PMC10307832

Key:
Test in all cases: relative viability (nuclei count vs DMSO), 5 days (fraction); higher = more cells survive
[1] = compound: CCN(CCO)CCCC(C)Nc1ccnc2cc(Cl)ccc12 [Hydroxychloroquine] + O=C(CCCCCCC(=O)Nc1ccccc1)NO [Vorinostat] (partner 1 µM)
Method in brief: (§1)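 Lung cancer cell lines, seeded in 1536-well plates, were treated the following day by pin tool with a single drug or with five library-drug doses (not always all listed) in √10 steps on top of a fixed anchor-drug dose. Cells were fixed and nuclei stained in one step after 5 days, and nuclei were counted. Relative viability is the nuclei count for treated wells divided by that for vehicle wells, reported as medians of duplicate plates.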

[2] = compound: CCN(CCO)CCCC(C)Nc1ccnc2cc(Cl)ccc12 [Hydroxychloroquine] + C[C@]1(O)C[C@@H](c2nc(-c3ccc4ccc(-c5ccccc5)nc4c3)c3c(N)nccn32)C1 [Linsitinib] (partner 1 µM)
Method in brief: as §1

[3] = compound: CCN(CCO)CCCC(C)Nc1ccnc2cc(Cl)ccc12 [Hydroxychloroquine] + CC1(C)CCC(c2ccc(Cl)cc2)=C(CN2CCN(c3ccc(C(=O)NS(=O)(=O)c4ccc(N[C@H](CCN5CCOCC5)CSc5ccccc5)c(S(=O)(=O)C(F)(F)F)c4)cc3)CC2)C1 [Navitoclax] (partner 0.5 µM)
Method in brief: as §1

[4] = compound: CCN(CCO)CCCC(C)Nc1ccnc2cc(Cl)ccc12 [Hydroxychloroquine] + Cc1nc(NC(=O)N2CCC[C@H]2C(N)=O)sc1-c1ccnc(C(C)(C)C(F)(F)F)c1 [Alpelisib] (partner 2 µM)
Method in brief: as §1

Row | Cell Line | relative viability ([1]; first compound 0.5 µM) | relative viability ([1]; first compound 1.581 µM) | relative viability ([1]; first compound 5 µM) | relative viability ([1]; first compound 15.81 µM) | relative viability ([1]; first compound 50 µM) | relative viability ([2]; first compound 0.5 µM) | relative viability ([2]; first compound 1.581 µM) | relative viability ([2]; first compound 5 µM) | relative viability ([2]; first compound 15.81 µM) | relative viability ([2]; first compound 50 µM) | relative viability ([3]; first compound 0.5 µM) | relative viability ([3]; first compound 1.581 µM) | relative viability ([3]; first compound 5 µM) | relative viability ([3]; first compound 15.81 µM) | relative viability ([3]; first compound 50 µM) | relative viability ([4]; first compound 0.5 µM) | relative viability ([4]; first compound 1.581 µM) | relative viability ([4]; first compound 5 µM) | relative viability ([4]; first compound 15.81 µM) | relative viability ([4]; first compound 50 µM)
1 | LU99A | 0.559 | 0.474 | 0.465 | 0.435 | 0.507 | 0.525 | 0.478 | 0.437 | 0.527 | 0.503 | 0.858 | 0.707 | 0.93 | 0.679 | 0.749 | 0.481 | 0.364 | 0.534 | 0.498 | 0.619
2 | A-427 | 0.919 | 0.826 | 0.834 | 0.807 | 0.79 | 1.13 | 1.05 | 1.13 | 1.09 | 1.16 | 0.875 | 0.776 | 0.993 | 0.919 | 1.04 | 1.06 | 1.03 | 1.04 | 0.956 | 1.1
3 | COR-L 105 | 0.87 | 0.807 | 0.628 | 0.743 | 0.804 | 1.08 | 1 | 0.905 | 0.851 | 0.814 | 0.595 | 0.747 | 0.778 | 0.816 | 0.594 | 1.13 | 1 | 1.08 | 0.765 | 0.87
4 | NCI-H460 | 0.733 | 0.865 | 0.812 | 0.815 | 0.83 | 0.849 | 0.862 | 0.633 | 0.939 | 0.848 | 1.24 | 1.35 | 1.19 | 1.36 | 1.41 | 0.609 | 0.428 | 0.439 | 0.421 | 0.52
5 | NCI-H2126 | 0.834 | 0.728 | 0.749 | 0.733 | 0.897 | 0.694 | 0.634 | 0.681 | 0.649 | 0.747 | 0.859 | 0.804 | 0.848 | 0.884 | 0.833 | 0.727 | 0.738 | 0.73 | 0.775 | 0.794
6 | HCC-44 | 1.1 | 1.09 | 1.14 | 1.1 | 1.14 | 0.634 | 0.682 | 0.723 | 0.748 | 0.774 | 1.02 | 1 | 0.964 | 0.994 | 1.06 | 0.815 | 0.838 | 0.86 | 0.922 | 0.902
7 | NCI-H520 | 0.915 | 0.642 | 0.743 | 0.77 | 0.715 | 1.25 | 0.908 | 0.908 | 1.16 | 0.923 | 1.12 | 1.16 | 1.13 | 1.03 | 1.2 | 1.04 | 0.776 | 0.901 | 0.999 | 0.89
8 | SW 1573 | 0.689 | 0.627 | 0.878 | 0.734 | 0.951 | 0.698 | 0.625 | 0.67 | 0.74 | 0.674 | 0.971 | 0.884 | 1.01 | 1.03 | 0.972 | 0.703 | 0.767 | 0.893 | 0.796 | 0.826
9 | NCI-H322M | 0.849 | 0.877 | 0.83 | 0.839 | 0.991 | 0.891 | 1.06 | 0.961 | 0.945 | 0.972 | 1 | 1.15 | 1.12 | 1.15 | 1.43 | 0.864 | 0.814 | 0.864 | 0.758 | 0.769
10 | EKVX | 0.688 | 0.609 | 0.677 | 0.767 | 0.648 | 0.929 | 1.01 | 1.09 | 0.955 | 1.05 | 1.1 | 0.919 | 1.07 | 1.04 | 0.943 | 0.964 | 0.867 | 0.844 | 0.846 | 0.912
11 | NCI-H1734 | 0.856 | 0.697 | 0.787 | 0.866 | 0.826 | 0.817 | 0.748 | 0.914 | 0.894 | 0.903 | 0.913 | 0.812 | 0.86 | 0.988 | 0.948 | 0.674 | 0.696 | 0.362 | 0.781 | 0.668
12 | NCI-H596 | 0.612 | 0.765 | 0.523 | 0.398 | 0.587 | 0.947 | 1.11 | 1.13 | 1.04 | 0.982 | 0.857 | 0.853 | 0.933 | 0.979 | 0.998 | 0.461 | 0.463 | 0.546 | 0.606 | 0.492
13 | EPLC-272H |  | 0.359 | 0.433 | 0.392 | 0.488 | 1.13 | 1 | 1.2 | 1.12 | 1.25 | 1.19 | 1.07 | 1.28 | 1.24 | 1.29 | 0.928 | 0.858 | 0.94 | 0.998 | 0.919
14 | NCI-H441 | 0.734 | 0.677 | 0.781 | 1.07 | 0.693 | 0.561 | 0.497 | 0.627 | 0.664 | 0.699 |  | 0.767 | 0.52 | 0.707 | 0.671 |  | 0.627 | 0.816 | 0.746 | 0.625
15 | NCI-H1993 | 0.828 | 0.837 | 0.599 | 0.656 | 0.727 | 0.707 | 0.719 | 0.683 | 0.718 | 0.735 | 0.931 | 0.779 | 0.879 | 1.03 | 0.893 | 0.632 | 0.712 | 0.789 | 0.71 | 0.692
16 | NCI-H647 | 0.662 | 0.704 | 0.603 | 0.616 | 0.612 | 1.27 | 1.01 | 1.29 | 1.25 | 1.22 | 1.23 | 0.938 | 1.29 | 1.19 | 1.31 | 1.12 | 1.06 | 1.1 | 1.02 | 1.13
17 | NCI-H1793 | 0.791 | 0.606 | 0.548 | 0.638 | 0.804 | 0.774 | 0.758 | 1.06 | 0.941 | 0.964 | 0.331 | 0.32 | 0.404 | 0.389 | 0.547 | 0.832 | 0.738 | 0.635 | 0.736 | 0.749
